Reference: patent US11208387B2, “Macrocyclic broad spectrum antibiotics” (Genentech, Inc., priority 2019, dated 2021)
Values after ≈ are worked out from the molar mass of the structure shown. Read-outs that look alike come from different tables or passages of the source.

How the values were obtained:
[1] = tested on: Acinetobacter baumannii ATCC 17978; assay: Serum MIC, broth micro-dilution; format: cell-based; conditions: Acinetobacter baumannii, ATCC17978, 50% v/v mouse serum in Mueller Hinton II cation adjusted Broth, 35° C., 22 hours
Summary of the method: (§1)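 Half mouse serum, half cation-adjusted MH II broth (v/v) served as test medium; bacteria at final OD600 0.0005 were exposed to serial 2-fold compound dilutions for 22 h, 35° C, and the MIC was determined per CLSI M07-A8.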

[2] = tested on: Pseudomonas aeruginosa PA01; assay: Serum MIC, broth micro-dilution; format: cell-based; conditions: Pseudomonas aeruginosa, PA01; 50% v/v mouse serum in Mueller Hinton II cation adjusted Broth, 35° C., 22 hours; Table 4; read-out: P. aeruginosa 01 Serum MIC
Summary of the method: as §1

[3] = tested on: Escherichia coli strain ATCC 25922; assay: Serum MIC, broth micro-dilution; format: cell-based; conditions: Escherichia coli, ATCC25922; 50% v/v mouse serum in Mueller Hinton II cation adjusted Broth, 35° C., 22 hours; Table 4; read-out: E. coli 25922 Serum MIC
Summary of the method: as §1

[4] = tested on: Klebsiella pneumoniae ATCC 700603; assay: Serum MIC, broth micro-dilution; format: cell-based; conditions: Klebsiella pneumoniae, ATCC700603; 50% v/v mouse serum in Mueller Hinton II cation adjusted Broth, 35° C., 22 hours; Table 4; read-out: K pneumoniae 700603 Serum MIC
Summary of the method: as §1

[5] = tested on: isolated liver mitochondria; assay: Mitochondrial oxygen consumption rate (OCR) assay; format: biochemical, Sprague-Dawley rats; conditions: isolated rat liver mitochondria, state 3 (S3) respiration, glutamate/malate; Table 3
Excerpt: Male Sprague-Dawley rats (8-10 weeks of age) were euthanized with an overdose of carbon dioxide. The liver was rapidly excised and placed in ice-cold phosphate-buffered saline (PBS) before isolation process. Mitochondria were isolated using the MitoCheck® Mitochondrial Isolation Kit (Cayman Chemical #701010, Ann Arbor, Mich.) according to manufacturer's instructions. In brief, approximately 10-14 grams of liver tissues were finely minced using a pair of scissors, and washed repeatedly with ice-cold PBS, followed by Mito Isolation Buffer. The minced tissues were homogenized with 30 ml Mito Homogenization Buffer in 40 ml dounce homogenizer and a smooth glass grinder. The homogenate was split into two clean 30 ml polycarbonate tubes and centrifuged at 1,000×g, 4° C., for 3 minutes. The supernatant was subjected to further centrifugation at 10,000×g, 4° C., for 10 minutes. The supernatant was discarded and mitochondrial pellet was suspended in Mito Isolation Buffer using a glass stirring rod and stored on ice until use. Protein concentration of mitochondria was determined using a bicinchoninic acid protein assay kit (Thermo Scientific, Waltham, Mass.).
Oxygen consumption was monitored as essentially described by Will et al., “Analysis of mitochondrial function using phosphorescent oxygen-sensitive probes,” Nature Protocols Vol. 1(6) (2006) 2563. Briefly, isolated mitochondria (50 μg mitochondrial proteins/state 3 (S3) of mitochondrial respiration for inhibitor identification, 100 μg/S2 for uncoupler identification) were incubated with compounds in 25 μl of Measurement Buffer (MB: 250 mM sucrose, 15 mM KCl, 1 mM EGTA, 5 mM MgCl2, 30 mM K2HPO4, pH 7.4) including 1% DMSO on ice for 1 hour, then mixed with 25 μl of substrate mixture including an oxygen-sensitive phosphorescent dye (MitoXpress Xtra, Agilent, Santa Clara, Calif.), glutamate (25 mM, G1626, Sigma, St. Louis, Mo.), malate (25 mM, M6413, Sigma), ADP (3.3 mM, A2754, Sigma, only for S3 of mitochondrial respiration), Fatty acid free BSA (0.1%, A0281, Sigma), and a complex II-specific inhibitor TTFA (2 μM, T27006, Sigma for the assessment of complex I-mitochondrial respiration with glutamate/malate) in a black wall/clear bottom 384-well plate. The mixtures were covered with HS mineral oil (Agilent) using the Viaflo 384-channel pipette (Integra, Hudson, N.H.). Oxygen consumption was measured for 30 min at 30° C. using a spectrofluorimeter (FLUOstar Omega, BMG Labtech, Cary, N.C.). In S3, DMSO vehicle control and antimycin A (10 μM) were used to define 0% and 100% inhibition. In S2, DMSO vehicle and FCCP (0.5-1 μM) was used to define 0% and 100% uncoupling, respectively. Area under curve typically in a range of 0-12 min (S3) or 0-24 min (S2) was used for calculations. IC50 or UC50 (uncoupling concentration), a concentration that causes 50% of inhibition or maximal (uncoupling) activation of oxygen consumption, was used to evaluate experimental quality. Data were presented as μM (per 50 μg (S3) or 100 μg (S2) mitochondrial proteins). Compounds with IC50: <100 μM (S3) and/or UC50: <200 μM (S2) were considered as high-risk on mitochondrial toxicity. Compounds with 25-50% changes in inhibition and/or uncoupling were categorized as medium-risk, since compounds with >25% changes are considered as responders.
Toxicity associated with mitochondrial dysfunction has presented a problem for promising potential antibiotics as we as other types of therapeutics. The mitochondrial oxygen consumption rate (OCR) assay is considered a reliable indicator of potential internal organ toxicity issues that may occur with powerful antibiotics. The carboxylate compounds of the invention show unexpected lower toxicity than prior art “glycine nitrile” arylomycin analogs (see, e.g., WO 2018/149419) in the mitochondrial oxygen consumption rate (OCR) assay.

[6] = Table 4, read-out: A. baumanii 17978 Serum MIC
[7] = Table 5, read-out: Acinetobacter baumanii 17978 Serum MIC

| Structure (SMILES) | MIC [1, 6] | MIC [1, 7] | MIC [2] | MIC [3] | MIC [4] | IC50 [5] |
| --- | --- | --- | --- | --- | --- | --- |
| Cc1nc(-c2ccc(C(C)(C)C)cc2)nc(N)c1C(=O)N[C@@H](CNS(N)(=O)=O)C(=O)N(C)[C@@H]1C(=O)N[C@@H](C)C(=O)N[C@H](C(=O)O)Cc2ccc(OC[C@@H](O)CN)c(c2)-c2cc1cc(OC[C@@H](O)CN)c2O [Example 64, (8S,11S,14S)-14-[[(2S)-2-[[4-amino-2-(4-tert-butylphenyl)-6-methyl-pyrimidine-5-carbonyl]amino]-3-(sulfamoylamino)-propanoyl]-methyl-amino]-3,17-bis[(2S)-3-amino-2-hydroxy-propoxy]-18-hydroxy-11-methyl-10,13-dioxo-9,12-diazatri-cyclo[13.3.1.12,6]icosa-1(18),2(20),3,5,15(19), 16-hexaene-8-carboxylic acid] | 8 µM (≈ 8.06 µg/mL) | 8 µM (≈ 8.06 µg/mL) | 4 µM (≈ 4.03 µg/mL) | 0.5 µM (≈ 0.504 µg/mL) | 0.5 µM (≈ 0.504 µg/mL) | > 100 µM |
| Cc1nc(-c2ccc(C(F)(F)C(C)C)cc2)nc(N)c1C(=O)N[C@@H](CNS(N)(=O)=O)C(=O)N(C)[C@@H]1C(=O)N[C@@H](C)C(=O)N[C@H](C(=O)O)Cc2ccc(OC[C@H](O)CN)c(c2)-c2cc1cc(OC[C@H](O)CN)c2O [Example 38, (8S,11S,14S)-14-[[(2S)-2-[[4-amino-2-[4-(1,1-difluoro-2-methyl-propyl)-phenyl]-6-methyl-pyrimidine-5-carbonyl]amino]-3-(sulfamoylamino)-propanoyl]-methyl-amino]-3,17-bis[(2R)-3-amino-2-hydroxy-propoxy]-18-hydroxy-11-methyl-10,13-dioxo-9,12-diazatri-cyclo[13.3.1.12,6]icosa-1(18),2(20),3,5,15(19), 16-hexaene-8-carboxylic acid] | 16 µM (≈ 16.7 µg/mL) | 16 µM (≈ 16.7 µg/mL) | 12 µM (≈ 12.5 µg/mL) | 0.5 µM (≈ 0.522 µg/mL) | 0.5 µM (≈ 0.522 µg/mL) | > 100 µM |
| Cc1nc(-c2ccc3c(c2O)CCC3(C)C)nc(N)c1C(=O)N[C@@H](CNS(N)(=O)=O)C(=O)N(C)[C@@H]1C(=O)N[C@@H](C)C(=O)N[C@H](C(=O)O)Cc2ccc(OC[C@H](O)CN)c(c2)-c2cc1cc(OC[C@H](O)CN)c2O [Example 70, (8S,11S,14S)-18-hydroxy-11-methyl-14-[methyl-[(2S)-2-[[4-amino-2-(4-hydroxy-1,1-dimethyl-indan-5-yl)-6-methyl-pyrimidine-5-carbonyl]-amino]-3-(sulfamoyl-amino)propanoyl]-amino]-10,13-dioxo-3,17-bis[(2R)-3-amino-2-hydroxy-propoxy]-9,12-diazatricyclo-[13.3.1.12,6]icosa-1(18),2(20),3,5,15(19), 16-hexaene-8-carboxylic acid] | 16 µM (≈ 16.6 µg/mL) | 16 µM (≈ 16.6 µg/mL) | 4 µM (≈ 4.14 µg/mL) | 0.5 µM (≈ 0.518 µg/mL) | 1 µM (≈ 1.04 µg/mL) | 48 µM |
| Cc1nc(-c2ccc(C(C)(C)C)cc2F)nc(N)c1C(=O)N[C@@H](CNS(N)(=O)=O)C(=O)N(C)[C@@H]1C(=O)N[C@@H](C)C(=O)N[C@H](C(=O)O)Cc2ccc(OC[C@H](O)CN)c(c2)-c2cc1cc(OC[C@H](O)CN)c2O [Example 62, (8S,11S,14S)-14-[[(2S)-2-[[4-amino-2-(4-tert-butyl-2-fluoro-phenyl)-6-methyl-pyrimidine-5-carbonyl]-amino]-3-(sulfamoyl-amino)propanoyl]-methyl-amino]-3,17-bis[(2R)-3-amino-2-hydroxy-propoxy]-18-hydroxy-11-methyl-10,13-dioxo-9,12-diazatricyclo-[13.3.1.12,6]icosa-1(18),2(20),3,5,15(19), 16-hexaene-8-carboxylic acid] | 16 µM (≈ 16.4 µg/mL) | 16 µM (≈ 16.4 µg/mL) | 6 µM (≈ 6.16 µg/mL) | 1 µM (≈ 1.03 µg/mL) | 1 µM (≈ 1.03 µg/mL) | > 100 µM |
| Cc1nc(-c2ccc(C(C)(C)C)cc2)ncc1C(=O)N[C@@H](CNS(N)(=O)=O)C(=O)N(C)[C@@H]1C(=O)N[C@@H](C)C(=O)N[C@H](C(=O)O)Cc2ccc(OC[C@H](O)CN)c(c2)-c2cc1cc(OC[C@H](O)CN)c2O [Example 8, (8S,11S,14S)-18-hydroxy-11-methyl-14-[methyl-[(2S)-2-[[2-(4-tert-butyl-phenyl)-4-methyl-pyrimidine-5-carbonyl]amino]-3-(sulfamoylamino)-propanoyl]amino]-10,13-dioxo-3,17-bis[(2R)-3-amino-2-hydroxy-propoxy]-9,12-diazatricyclo-[13.3.1.12,6]icosa-1(18),2(20),3,5,15(19), 16-hexaene-8-carboxylic acid] | 16 µM (≈ 15.9 µg/mL) | 16 µM (≈ 15.9 µg/mL) | 7 µM (≈ 6.95 µg/mL) | 0.38 µM (≈ 0.377 µg/mL) | 0.5 µM (≈ 0.497 µg/mL) | 28 µM |

Second part, the compound after the results:

| MIC [1, 6] | MIC [1, 7] | MIC [2] | MIC [3] | MIC [4] | IC50 [5] | Structure (SMILES) |
| --- | --- | --- | --- | --- | --- | --- |
| 4 µM (≈ 3.92 µg/mL) | 4 µM (≈ 3.92 µg/mL) | 16 µM (≈ 15.7 µg/mL) | 0.25 µM (≈ 0.245 µg/mL) | 0.25 µM (≈ 0.245 µg/mL) | > 100 µM | C[C@@H]1NC(=O)[C@@H](N(C)C(=O)[C@H](CCN)NC(=O)c2c(N)nc(-c3ccc(C(C)(C)C)cc3)nc2C(F)F)c2cc(OC[C@H](O)CN)c(O)c(c2)-c2cc(ccc2OC[C@H](O)CN)C[C@@H](C(=O)O)NC1=O [Example 32, (8S,11S,14S)-18-hydroxy-11-methyl-14-[methyl-[(2S)-4-amino-2-[[2-(4-tert-butylphenyl)-4-amino-6-difluoro-methyl-pyrimidine-5-carbonyl]amino]-butanoyl]amino]-10,13-dioxo-3,17-bis[(2R)-3-amino-2-hydroxy-propoxy]-9,12-diazatricyclo-[13.3.1.12,6]icosa-1(18),2(20),3,5,15(19), 16-hexaene-8-carboxylic acid] |
| 16 µM (≈ 15.1 µg/mL) | 16 µM (≈ 15.1 µg/mL) | 16 µM (≈ 15.1 µg/mL) | 0.5 µM (≈ 0.472 µg/mL) | 0.25 µM (≈ 0.236 µg/mL) | > 200 µM | Cc1nc(-c2ccc(C(C)(C)C)cc2)nc(N)c1C(=O)N[C@@H](CCN)C(=O)N(C)[C@@H]1C(=O)N[C@@H](C)C(=O)N[C@H](C(=O)O)Cc2ccc(OC[C@H](O)CN)c(c2)-c2cc1cc(OC[C@H](O)CN)c2O [Example 24, (8S,11S,14S)-18-hydroxy-11-methyl-14-[methyl-[(2S)-4-amino-2-[[4-amino-2-(4-tert-butylphenyl)-6-methyl-pyrimidine-5-carbonyl]amino]-butanoyl]amino]-10,13-dioxo-3,17-bis[(2R)-3-amino-2-hydroxy-propoxy]-9,12-diazatricyclo-[13.3.1.12,6]icosa-1(18),2(20),3,5,15(19), 16-hexaene-8-carboxylic acid] |
